Key:
[1] = tested on: ADP (5 μM and 20 μM)-induced platelet aggregation; assay: Clinical Example 3: responders by ADP-induced platelet aggregation (turbidometric aggregometry) after loading dose; type: in vivo, human; settings: for responders: healthy volunteers
Description: Clopidogrel Responders and Nonresponders: A Comparison with Prasugrel a Novel Thienopyridine P2Y12 Receptor Antagonist • Background: Lower levels of inhibition of platelet aggregation (IPA) with clopidogrel have been associated with a higher risk of adverse events after percutaneous coronary intervention (PCI). Thresholds of IPA, objectively defined with Bayesian classification theory, were used to identify responders and non-responders to clopidogrel and prasugrel, a novel thienopyridine P2Y12 receptor antagonist. • Methods: An integrated database of ADP (5 μM and 20 μM)-induced platelet aggregation as measured by turbidometric aggregometry was analyzed from three single-center cross-over clinical pharmacology studies. Subjects (N=112, aged 18-65 years) were healthy volunteers with a baseline maximum platelet aggregation (MPA) of >70% to 20 μM ADP and were randomized to either a clopidogrel 300 mg loading dose (LD) or a prasugrel 60 mg LD. The change in MPA (ΔMPA) from baseline and IPA were evaluated at both 4-5 and 24 hours after the LD. A responder was defined as an individual achieving either a ΔMPA≧15% or an IPA≧20% in response to 20 μM ADP.

[2] = tested on: platelet aggregation induced by 20 μM ADP; assay: Clinical Example 1: multiple-dose study, platelet aggregation induced by 20 μM ADP measured turbidometrically; type: in vivo, human; settings: for IPA: 24 hours after 10th dose, mean ± SE, n = 6
Protocol: (§1) A Comparative Study of the Effects of Prasugrel and Clopidogrel on Platelet Function in Healthy Subjects • Background: Antiplatelet agents such as aspirin and clopidogrel are effective in the secondary prevention of atherothrombotic events. […] This study examined the tolerability, safety, and IPA profile of prasugrel compared with clopidogrel. • Method: A double-blind, placebo-controlled, multiple-dose study of healthy male volunteers randomized into 5 groups (n=6): prasugrel (5, 10 and 20 mg), clopidogrel (75 mg), and placebo. Study medications were taken once daily for 10 days.

[3] = tested on: platelet aggregation to 20 μM ADP; assay: Clinical Example 2: IPA to 20 μM ADP by turbidometric aggregometry and non-responder rates in aspirin-treated patients; type: in vivo, human; settings: for pre-dose IPA at day 28 / IPA at 4 h after LD: 20 μM ADP
Protocol: This study analyzed IPA and non-responder rates with prasugrel (Pras), a novel P2Y12 antagonist, vs. clopidogrel (Clop) in aspirin-treated patients. • Methods: After 7-days on aspirin 325 mg, 101 subjects were randomized to 1 of 5 dosing regimens, a loading dose (LD) on day 1 and a daily maintenance dose (MD) on days 2-28: prasugrel—40 mg LD/5 mg MD, 40 mg LD/7.5 mg MD, 60 mg LD/10 mg MD, or 60 mg LD/15 mg MD or clopidogrel—300 mg LD/75 mg MD). IPA to 20 μM ADP was measured by turbidometric aggregometry.

platelet aggregation = assay: Preclinical studies of prasugrel base versus clopidogrel; settings: preclinical studies involving the base of prasugrel
[4] = Clinical Example 1: tolerability, safety and bleeding time; type: in vivo, human; settings: healthy subjects; multiple oral dosing, 5 to 20 mg for 10 days
Protocol: as §1

[5] = 5 μM ADP, clopidogrel 300 mg LD, N = 112
[6] = 20 μM ADP, clopidogrel 300 mg LD, N = 112
[7] = 5 μM ADP, prasugrel 60 mg LD, N = 91
[8] = 20 μM ADP, prasugrel 60 mg LD, N = 91

COC(=O)[C@H](c1ccccc1Cl)N1CCc2sccc2C1 [clopidogrel, reference compound]
Number of Responders, IPA ≧ 25% [1, 5]: 87
Number of Responders, ΔMPA ≧ 20% [1, 5]: 82
Percentage of Responders, IPA ≧ 25% [1, 5]: 78%
Percentage of Responders, ΔMPA ≧ 20% [1, 5]: 73%
responders ([1]; 5 μM ADP, clopidogrel 300 mg LD): approximately 75%
Number of Responders, IPA ≧ 20% [1, 6]: 64
Number of Responders, ΔMPA ≧ 15% [1, 6]: 68
Percentage of Responders, IPA ≧ 20% [1, 6]: 57%
Percentage of Responders, ΔMPA ≧ 15% [1, 6]: 61%
responders ([1]; 20 μM ADP, clopidogrel 300 mg LD): 60%
subjects demonstrating minimal IPA at Day 10 ([2]; clopidogrel 75 mg once daily for 10 days): 2 of 6
IPA ([2]; clopidogrel 75 mg once daily for 10 days, 20 μM ADP): 15.7%
IPA ([2]; clopidogrel 75 mg once daily for 10 days, 20 μM ADP, listed as Clopidogrel): 15.7 ± 6.8%
pre-dose IPA at day 28 ([3]; clopidogrel 75 mg MD, aspirin-treated patients): 31.2%
non-responder rate (not achieving ≧20% IPA) ([3]; clopidogrel 75 mg MD, pre-dose during MD): 46%
non-responder rate (not achieving ≧20% IPA) ([3]; clopidogrel 300 mg LD, 4 h after LD): 52%
IPA at 4 h after LD ([3]; clopidogrel 300 mg LD, aspirin-treated patients): 30.0%

CC(=O)Oc1cc2c(s1)CCN(C(C(=O)C1CC1)c1ccccc1F)C2 (stereo not drawn) [prasugrel, 2-Acetoxy-5-(α-cyclopropylcarbonyl-2-fluorobenzyl)-4,5,6,7-tetrahydrothieno[3,2-c]pyridine]
Number of Responders, IPA ≧ 25% [1, 7]: 91
Number of Responders, ΔMPA ≧ 20% [1, 7]: 91
Percentage of Responders, IPA ≧ 25% [1, 7]: 100%
Percentage of Responders, ΔMPA ≧ 20% [1, 7]: 100%
responders ([1]; 5 μM ADP, prasugrel 60 mg LD): 100%
Number of Responders, IPA ≧ 20% [1, 8]: 91
Number of Responders, ΔMPA ≧ 15% [1, 8]: 91
Percentage of Responders, IPA ≧ 20% [1, 8]: 100%
Percentage of Responders, ΔMPA ≧ 15% [1, 8]: 100%
responders ([1]; 20 μM ADP, prasugrel 60 mg LD): 100%
IPA ([2]; prasugrel 5 mg once daily for 10 days, 20 μM ADP): 39.2 ± 4.4%
IPA ([2]; prasugrel 10 mg once daily for 10 days, 20 μM ADP): 58.2 ± 4.9%
IPA ([2]; prasugrel 20 mg once daily for 10 days, 20 μM ADP): 68.3 ± 5.4%
IPA, range over doses ([2]; prasugrel 5, 10 and 20 mg once daily for 10 days, 24 hours after the final dose, 20 μM ADP): 39.2%-68.3
potency relative to clopidogrel (platelet aggregation): at least 10 times
tolerability [4]: well tolerated
pre-dose IPA at day 28 ([3]; prasugrel 10 mg MD, aspirin-treated patients): 57.5%
pre-dose IPA at day 28 ([3]; prasugrel 15 mg MD, aspirin-treated patients): 65.8%
IPA at 4 h after LD ([3]; prasugrel 40 mg LD, aspirin-treated patients): 60.6%
IPA at 4 h after LD ([3]; prasugrel 60 mg LD, aspirin-treated patients): 68.4%
rate of non-responders compared to standard clopidogrel LD and MD ([3]; prasugrel LD of 40 or 60 mg and MD of 10 or 15 mg, aspirin-treated patients): lower rate of non-responders

Reference: patent US20090156632A1, “DOSAGE REGIMEN FOR PRASUGREL” (priority 2005, published 2009)
